Values joined by “and” are separate entries in the source; they are usually repeats but may differ in a detail not shown here. Identical values can stand only once.
Assays:
healthy mixed-breed dogs [1] = test: Serum biochemistry profile before and after apixaban; type: in vivo, dog; design: TP / Bicarbonate: unit not given beside the values; Calcium / Magnesium / Globulin / ALT / AST / GGT / T.bili / Sodium / BUN / Creatinine: unit not given here; conditions: for ALT / AST / Albumin / BUN / Bicarbonate / Calcium / Creatinine / GGT / Globulin / Magnesium / Sodium / T.bili / TP / Amylase / Cholesterol / Glucose / Phosphate / Potassium / TIBC: individual dogs (Dog 1-6); for Amylase: in U/L (unit assumed); for TIBC: in µg/dL (unit assumed)
Protocol: Catheters were flushed with 0.9% saline, without heparin.
Pairwise comparisons between continuous variables were conducted with Wilcoxon matched-pairs signed rank test, while comparisons of more than two groups were conducted using the Friedman test with Dunn's post-hoc adjustment. […] Comparisons of pharmacodynamic variables between baseline values and those at discrete sampling intervals were performed using the Friedman test with Dunn's post-hoc correction for multiple comparisons. […] Alpha was set at 0.05. Statistical analyses were performed using commercial software (Prism 9, GraphPad, La Jolla, CA).

healthy mixed-breed dogs [2] = test: Complete blood count before and after apixaban; type: in vivo, dog; design: RBC: unit not given beside the values; Neut / Lymph / Mono / Eos / Baso / HCT / MCV / MCH / MCHC: unit not given here; conditions: for Baso / Eos / HCT / Hgb / Lymph / MCH / MCHC / MCV / Mono / Neut / RBC / WBC: individual dogs (Dog 1-6); for WBC: in 10^3/µL (unit assumed)
prothrombin time = conditions: in vitro, dog plasma fortified with apixaban; cited from earlier work
[3] = male beagles, 5 mg/kg 14C labeled apixaban orally; cited from earlier work
[4] = cited from earlier work
healthy mixed-breed dogs [5] = test: Monitoring for adverse reactions after IV and PO apixaban; conditions: study period
Excerpt: Additionally, drug metabolism might be different in beagles compared with mixed-breed dogs ([33], [34]). […] The study was approved by the Institutional Animal Care and Use Committee (IACUC) at Cornell University College of Veterinary Medicine (Protocol #2019-0099). All dogs were housed at Cornell University and cared for by licensed veterinarians and technicians according to established protocols. All dogs were permanently adopted into private homes after study completion.
On the days of drug administration, 5 Fr × 25 cm trilumen wire-guided catheters (Mila International, Erlanger, KY) were aseptically placed in external jugular veins by modified-Seldinger technique to facilitate atraumatic, repeat blood sample collection. Dogs were sedated with IV butorphanol 0.2 mg/kg and dexmedetomidine 5 μg/kg (Zoetis, Parsippany, NJ) to facilitate catheter placement. Jugular catheters were secured using 3-0 nylon sutures, protected with sterile bandages, and flushed with 0.9% saline (no heparin was used). […] Dogs were closely monitored for adverse reactions throughout the sample collection period. […] After each sample collection, one citrate anticoagulated whole blood sample was analyzed using thromboelastography (TEG), while the second citrate sample was centrifuged (1,370 g, 10 min, 20°C), the plasma separated, split into two aliquots and then frozen at −80°C pending batch analyses.

major plasma proteins = test: Protein binding by ex vivo ultrafiltration of spiked plasma, LC/MS; type: in vitro ADME, dog
Protocol: For each dog a sample of anticoagulated platelet-poor plasma collected at baseline was centrifuged (16,000 g, 5 min, 4°C) and the supernatant filtered with a […] syringe filter. […] One aliquot was centrifuged (16,000 g, 30 min, 4°C) in a molecular exclusion device (Amicon Ultra 30k filter, Millipore-Sigma) to remove the major plasma proteins. The spiked plasma and the ultrafiltrate were then analyzed for apixaban by LC/MS as above. Protein binding (%) was determined as: [Total concentration] – [[…] Unbound concentration]/Total concentration ×100.

[6] = +24h after IV apixaban, in mg/dL (unit assumed)
[7] = +30h after PO apixaban, in g/dL (unit assumed)
[8] = +30h after PO apixaban, in mg/dL (unit assumed)
[9] = +30h after PO apixaban, in mmol/L (unit assumed)

In the case of COc1ccc(-n2nc(C(N)=O)c3c2C(=O)N(c2ccc(N4CCCCC4=O)cc2)CC3)cc1 [apixaban], the ALT (healthy mixed-breed dogs [1]; +24h after IV apixaban) was 45 (2×) and 114 and 30 (2×) and 86, the AST (healthy mixed-breed dogs [1]; +24h after IV apixaban) was 34 and 44 and 21 and 32 (2×) and 31 and the Albumin (healthy mixed-breed dogs [1]; +24h after IV apixaban) was 3.9 and 3.4 (2×) and 3.5 and 3.7 and 3.8. The BUN (healthy mixed-breed dogs [1]; +24h after IV apixaban) was 16 (2×) and 19 and 30 and 20 and 21, the Bicarbonate (healthy mixed-breed dogs [1]; +24h after IV apixaban) was 23 and 18 (2×) and 21 and 19 (2×) and the Calcium (healthy mixed-breed dogs [1]; +24h after IV apixaban) was 10.0 (2×) and 8.9 and 10.2 and 9.9 and 9.6. The Creatinine (healthy mixed-breed dogs [1]; +24h after IV apixaban) was 0.8 and 0.7 (2×) and 1 (2×) and 0.9, the GGT (healthy mixed-breed dogs [1]; +24h after IV apixaban) was 2 (3×) and 3 (2×) and 6 and the Globulin (healthy mixed-breed dogs [1]; +24h after IV apixaban) was 2.3 and 2.1 (2×) and 2.4 and 2.0 (2×). The Magnesium (healthy mixed-breed dogs [1]; +24h after IV apixaban) was 1.8 (2×) and 1.6 and 1.7 (3×), the Sodium (healthy mixed-breed dogs [1]; +24h after IV apixaban) was 147 and 146 (3×) and 149 and 148 and the T.bili (healthy mixed-breed dogs [1]; +24h after IV apixaban) was 0.0 (4×) and 0.1 (2×). For the same compound, the TP (healthy mixed-breed dogs [1]; +24h after IV apixaban) was 6.2 and 5.5 and 5.8 (2×) and 5.6 and 5.7, the Amylase (healthy mixed-breed dogs [1]; +24h after IV apixaban) was 467 and 362 and 561 and 514 and 451 and 707 and the Cholesterol (healthy mixed-breed dogs [1]; [6]) was 174 and 180 and 226 and 129 and 127 and 173. For the same compound, the Glucose (healthy mixed-breed dogs [1]; [6]) was 58 and 39 and 93 and 100 and 85 and 52, the Phosphate (healthy mixed-breed dogs [1]; [6]) was 3.9 and 3.7 and 3.3 and 4.4 and 3.6 and 4.1 and the Potassium (healthy mixed-breed dogs [1]; +24h after IV apixaban, in mmol/L (unit assumed)) was 4.5 and 4.2 and 4.4 and 4.3. The TIBC (healthy mixed-breed dogs [1]; +24h after IV apixaban) was 391 and 352 and 385 and 345 and 313 and 356, the ALT (healthy mixed-breed dogs [1]; +30h after PO apixaban) was 26 (2×) and 33 and 36 and 39 and 35 and the AST (healthy mixed-breed dogs [1]; +30h after PO apixaban) was 34 and 22 and 32 (2×) and 45 and 33. The Albumin (healthy mixed-breed dogs [1]; +30h after PO apixaban) was 3.9 and 3.6 (2×) and 3.4 and 3.5 (2×), the BUN (healthy mixed-breed dogs [1]; +30h after PO apixaban) was 19 (2×) and 12 and 10 and 18 and 24 and the Calcium (healthy mixed-breed dogs [1]; +30h after PO apixaban) was 10.2 (2×) and 9.7 (3×) and 9.8. The Creatinine (healthy mixed-breed dogs [1]; +30h after PO apixaban) was 0.9 and 0.8 (2×) and 0.6 and 0.7 and 1, the GGT (healthy mixed-breed dogs [1]; +30h after PO apixaban) was 0 (2×) and 4 (2×) and 6 (2×) and the Globulin (healthy mixed-breed dogs [1]; +30h after PO apixaban) was 2.1 (3×) and 2.5 and 2 and 2.3. For the same compound, the Magnesium (healthy mixed-breed dogs [1]; +30h after PO apixaban) was 1.7 (5×) and 1.8, the Phosphate (healthy mixed-breed dogs [1]; +30h after PO apixaban) was 2.8 and 3.9 (2×) and 3.7 (2×) and 3.8 and the Sodium (healthy mixed-breed dogs [1]; +30h after PO apixaban) was 147 (4×) and 150 and 146. For the same compound, the T.bili (healthy mixed-breed dogs [1]; +30h after PO apixaban) was 0.1 (4×) and 0.0 (2×), the Amylase (healthy mixed-breed dogs [1]; +30h after PO apixaban) was 469 and 325 and 515 and 494 and 353 and 638 and the TP (healthy mixed-breed dogs [1]; [7]) was 6 and 5.7 and 6.1 and 5.4 and 5.8 and 5.6. The Cholesterol (healthy mixed-breed dogs [1]; [8]) was 198 and 192 and 244 and 106 and 162 and 186, the Glucose (healthy mixed-breed dogs [1]; [8]) was 77 and 93 and 76 and 78 and 102 and 87 and the Bicarbonate (healthy mixed-breed dogs [1]; [9]) was 22 and 20 and 17 and 18 and 14 and 19. For the same compound, the Potassium (healthy mixed-breed dogs [1]; [9]) was 4.3 and 4.5 and 3.9 and 4.9 and 4.6 and 4.8, the TIBC (healthy mixed-breed dogs [1]; +30h after PO apixaban) was 391 and 331 and 372 and 288 and 336 and 329 and the “chloride and GGT, baseline versus 24 h post-injection” value (healthy mixed-breed dogs [1]; IV) was “statistically significant reductions”. For the same compound, the biochemical parameters (healthy mixed-breed dogs [1]; PO, baseline versus 30 h post-dose) was “no changes”, the Baso (healthy mixed-breed dogs [2]; +24h after IV apixaban) was 0.1 (2×) and 0.0 (4×) and the Eos (healthy mixed-breed dogs [2]; +24h after IV apixaban) was 0.3 (2×) and 0.4 (2×) and 0.7 (2×). The HCT (healthy mixed-breed dogs [2]; +24h after IV apixaban) was 53 and 52 (2×) and 54 (2×) and 57, the Hgb (healthy mixed-breed dogs [2]; +24h after IV apixaban) was 17.7 and 17.2 and 16.8 and 17.5 (2×) and 18.3 and the Lymph (healthy mixed-breed dogs [2]; +24h after IV apixaban) was 2.3 and 2 (2×) and 3.3 and 1.6 and 3.7. The MCH (healthy mixed-breed dogs [2]; +24h after IV apixaban) was 25 (3×) and 23 and 24 (2×), the MCHC (healthy mixed-breed dogs [2]; +24h after IV apixaban) was 33 (2×) and 32 (4×) and the MCV (healthy mixed-breed dogs [2]; +24h after IV apixaban) was 73 and 75 and 71 and 74 and 76 (2×). The Mono (healthy mixed-breed dogs [2]; +24h after IV apixaban) was 0.3 (2×) and 0.6 and 0.5 (3×), the Neut (healthy mixed-breed dogs [2]; +24h after IV apixaban) was 4.1 and 5.8 and 5.6 (2×) and 5.1 and 8.0 and the RBC (healthy mixed-breed dogs [2]; +24h after IV apixaban) was 7.2 (2×) and 6.9 and 7.3 (2×) and 7.4. The WBC (healthy mixed-breed dogs [2]; +24h after IV apixaban) was 7.1 and 8.8 and 9.6 and 8.9 and 7.6 and 13, the Baso (healthy mixed-breed dogs [2]; +30h after PO apixaban) was 0 (3×) and 0.1 and 0.0 (2×) and the Eos (healthy mixed-breed dogs [2]; +30h after PO apixaban) was 0.3 (2×) and 0.2 (2×) and 0.4 and 0.6. For the same compound, the HCT (healthy mixed-breed dogs [2]; +30h after PO apixaban) was 56 and 55 and 52 (2×) and 46 and 50, the Lymph (healthy mixed-breed dogs [2]; +30h after PO apixaban) was 3.2 and 2 (2×) and 1.6 and 0.8 and 3.6 and the MCH (healthy mixed-breed dogs [2]; +30h after PO apixaban) was 24 (2×) and 25 (2×) and 23 (2×). For the same compound, the MCHC (healthy mixed-breed dogs [2]; +30h after PO apixaban) was 33 (4×) and 32 (2×), the MCV (healthy mixed-breed dogs [2]; +30h after PO apixaban) was 72 (2×) and 76 and 70 and 75 and 74 and the Mono (healthy mixed-breed dogs [2]; +30h after PO apixaban) was 0.5 (4×) and 0.4 and 0.3. For the same compound, the Neut (healthy mixed-breed dogs [2]; +30h after PO apixaban) was 6.1 (2×) and 5.4 and 7.9 and 5.7 and 7.3, the WBC (healthy mixed-breed dogs [2]; +30h after PO apixaban) was 10.1 and 8.3 and 10.8 and 8 and 7.6 and 12.1 and the RBC (healthy mixed-breed dogs [2]; +30h after PO apixaban, in 10^6/µL (unit assumed)) was 7.8 and 7.3 and 7.4 and 6.2 and 7 and 7.1. The Hgb (healthy mixed-breed dogs [2]; [7]) was 18.6 and 18 and 17 and 15.1 and 16.2 and 16.9, the CBC parameters (healthy mixed-breed dogs [2]; IV, baseline versus 24 h) was “No changes” and the “mean corpuscular hemoglobin concentration” value (healthy mixed-breed dogs [2]; PO, baseline versus 30 h) was “significant reduction”. For the same compound, the “concentration required to double the prothrombin time” value (prothrombin time) was 3,079 ng/ml and 6.7 μM, the “excretion of the unchanged compound via gastrointestinal routes” value [3] was 59% and the “excretion of the unchanged compound via renal route” value [3] was 7%. The protein-bound [4] was “over 90%”, the “time to maximal plasma concentrations” value ([4]; dogs, 0.5 mg/kg IV or PO) was 2.8 h and the oral bioavailability ([4]; dogs, 0.5 mg/kg, liquid formulation with methylcellulose and polysorbate 80) was 80%. For the same compound, the “standard PT” value ([4]; dogs, Thromboplastin C-Plus reagent) was “not the standard PT”, the “factor Xa-dependent clotting time test (HEPTEST)” value ([4]; dogs) was “prolonged” and the “adverse reactions, including signs of abnormal bleeding or bruising” value (healthy mixed-breed dogs [5]) was “no adverse reactions”. For the same compound, the fraction unbound at 500 ng/ml (major plasma proteins; both sexes, mixed-breed, platelet-poor plasma, dog plasma spiked at 500 ng/ml, ultrafiltration, mean of 6 dogs, using 7 ng/ml for the deproteinated samples) was 0.014 and the “apixaban concentration in deproteinated samples” value (major plasma proteins; ultrafiltrate of dog plasma spiked at 500 ng/ml, all samples) was less than 7 ng/mL.

— publication PMC8287028 (Frontiers in Veterinary Science, 2021)
